Laboratory results as given in ChEMBL document CHEMBL1201862, “PubChem BioAssay data set” (2004).
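These data come from cells grown in 96-well plates and exposed to compound for 48 hours at five concentrations. GI50: concentration for 50% inhibition of growth.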 The source made the active and inactive calls. No stated cut-off is given here; in the data, active = GI50 up to about 1.1 µM and inactive = higher.

Assays:
Test in all cases: NCI tumour cell line growth inhibition, 48 h
[1] = tested on: ACHN
[2] = tested on: COLO 205
[3] = tested on: IGROV-1
[4] = tested on: HOP-92
[5] = tested on: SNB-78
[6] = tested on: HT-29
[7] = tested on: DLD-1
[8] = tested on: SF-268
[9] = tested on: SK-MEL-2
[10] = tested on: OVCAR-5
[11] = tested on: HOP-18
[12] = tested on: HCT-116
[13] = tested on: MOLT-4
[14] = tested on: SK-MEL-5
[15] = tested on: XF498
[16] = tested on: DMS-273
[17] = tested on: NCI-H23
[18] = tested on: A498
[19] = tested on: RPMI-8226
[20] = tested on: LOX IMVI
[21] = tested on: EKVX
[22] = tested on: KM12
[23] = tested on: NCI-H460
[24] = tested on: RXF 393
[25] = tested on: HCT-15
[26] = tested on: KM-20L2
[27] = tested on: SNB-19
[28] = tested on: K562
[29] = tested on: SK-MEL-28
[30] = tested on: SK-OV-3
[31] = tested on: DMS-114
[32] = tested on: OVCAR-4
[33] = tested on: Malme-3M
[34] = tested on: NCI-H226
[35] = tested on: SNB-75
[36] = tested on: SF-295
[37] = tested on: UACC-62
[38] = tested on: OVCAR-8
[39] = tested on: HCC 2998
[40] = tested on: A549
[41] = tested on: SN12C
[42] = tested on: UO-31
[43] = tested on: HOP-62
[44] = tested on: 786-0
[45] = tested on: OVCAR-3
[46] = tested on: SW-620
[47] = tested on: CAKI-1
[48] = tested on: TK-10
[49] = tested on: M14
[50] = tested on: M19-MEL
[51] = tested on: UACC-257
[52] = tested on: CCRF-CEM
[53] = tested on: SF-539
[54] = tested on: U-251
[55] = tested on: HL-60
[56] = tested on: LXFL 529

**Q.** How did the GI50 [1] turn out when `CC1CCC2(NC1)OC1CC3[C@@H]4CC=C5C=CCC[C@]5(C)C4CC[C@]3(C)C1C2C` (stereo partly specified) was run?
**A.** 22.9 µM (inactive)

**Q.** What about the GI50 [2] of the same compound?
**A.** 17.3 µM (inactive)

**Q.** And the GI50 [3]?
**A.** 30.3 µM (inactive)

**Q.** What about the GI50 [4] of the same compound?
**A.** 19.7 µM (inactive)

**Q.** What about the GI50 [5] of the same compound?
**A.** 39.4 µM (inactive)

**Q.** And the GI50 [6]?
**A.** 15.1 µM (inactive)

**Q.** What about the GI50 [7] of the same compound?
**A.** 23.3 µM (inactive)

**Q.** And the GI50 [8]?
**A.** 28.6 µM (inactive)

**Q.** What about the GI50 [9] of the same compound?
**A.** 19 µM (inactive)

**Q.** What about the GI50 [10] of the same compound?
**A.** 23.6 µM (inactive)

**Q.** What about the GI50 [11] of the same compound?
**A.** 32.2 µM (inactive)

**Q.** What about the GI50 [12] of the same compound?
**A.** 17.7 µM (inactive)

**Q.** And the GI50 [13]?
**A.** 21.7 µM (inactive)

**Q.** What about the GI50 [14] of the same compound?
**A.** 15.3 µM (inactive)

**Q.** What about the GI50 [15] of the same compound?
**A.** 17.6 µM (inactive)

**Q.** And the GI50 [16]?
**A.** > 10 µM (inactive)

**Q.** What about the GI50 [17] of the same compound?
**A.** 32.3 µM (inactive)

**Q.** And the GI50 [18]?
**A.** 69.7 µM (inactive)

**Q.** And the GI50 [19]?
**A.** 20 µM (inactive)

**Q.** What about the GI50 [20] of the same compound?
**A.** 17.9 µM (inactive)

**Q.** What about the GI50 [21] of the same compound?
**A.** 19.6 µM (inactive)

**Q.** And the GI50 [22]?
**A.** 18.9 µM (inactive)

**Q.** And the GI50 [23]?
**A.** 19 µM (inactive)

**Q.** What about the GI50 [24] of the same compound?
**A.** 18.8 µM (inactive)

**Q.** And the GI50 [25]?
**A.** 21 µM

**Q.** What about the GI50 [26] of the same compound?
**A.** 17.9 µM (inactive)

**Q.** And the GI50 [27]?
**A.** 38.5 µM (inactive)

**Q.** What about the GI50 [28] of the same compound?
**A.** 18.5 µM (inactive)

**Q.** What about the GI50 [29] of the same compound?
**A.** 15.6 µM (inactive)

**Q.** And the GI50 [30]?
**A.** 25.8 µM (inactive)

**Q.** What about the GI50 [31] of the same compound?
**A.** 20.8 µM (inactive)

**Q.** What about the GI50 [32] of the same compound?
**A.** 18.2 µM (inactive)

**Q.** And the GI50 [33]?
**A.** 18.5 µM (inactive)

**Q.** What about the GI50 [34] of the same compound?
**A.** 35.2 µM (inactive)

**Q.** What about the GI50 [35] of the same compound?
**A.** 15.5 µM (inactive)

**Q.** And the GI50 [36]?
**A.** 23.3 µM (inactive)

**Q.** What about the GI50 [37] of the same compound?
**A.** 21 µM (inactive)

**Q.** What about the GI50 [38] of the same compound?
**A.** 17.9 µM (inactive)

**Q.** And the GI50 [39]?
**A.** 17.2 µM (inactive)

**Q.** What about the GI50 [40] of the same compound?
**A.** 24 µM (inactive)

**Q.** What about the GI50 [41] of the same compound?
**A.** 27.7 µM (inactive)

**Q.** What about the GI50 [42] of the same compound?
**A.** 21.8 µM (inactive)

**Q.** What about the GI50 [43] of the same compound?
**A.** 18.6 µM (inactive)

**Q.** And the GI50 [44]?
**A.** 16.6 µM (inactive)

**Q.** And the GI50 [45]?
**A.** 24.9 µM (inactive)

**Q.** And the GI50 [46]?
**A.** 19.7 µM (inactive)

**Q.** What about the GI50 [47] of the same compound?
**A.** 26.3 µM (inactive)

**Q.** What about the GI50 [48] of the same compound?
**A.** 15.3 µM (inactive)

**Q.** And the GI50 [49]?
**A.** 22.4 µM (inactive)

**Q.** And the GI50 [50]?
**A.** 33.9 µM (inactive)

**Q.** And the GI50 [51]?
**A.** 22.5 µM (inactive)

**Q.** And the GI50 [52]?
**A.** 21 µM (inactive)

**Q.** What about the GI50 [53] of the same compound?
**A.** 19.6 µM (inactive)

**Q.** What about the GI50 [54] of the same compound?
**A.** 28.3 µM (inactive)

**Q.** What about the GI50 [55] of the same compound?
**A.** 12.3 µM (inactive)

**Q.** For `OC1CN(OC/C=C/c2ccccc2)CC(O)C1O` (stereo unspecified), which GI50 [1] is on record?
**A.** > 100 µM (inactive)

**Q.** What about the GI50 [2] of the same compound?
**A.** > 100 µM (inactive)

**Q.** What about the GI50 [3] of the same compound?
**A.** > 100 µM (inactive)

**Q.** What about the GI50 [4] of the same compound?
**A.** > 100 µM (inactive)

**Q.** What about the GI50 [5] of the same compound?
**A.** > 100 µM (inactive)

**Q.** What about the GI50 [6] of the same compound?
**A.** > 100 µM (inactive)

**Q.** And the GI50 [7]?
**A.** 87.3 µM (inactive)

**Q.** What about the GI50 [56] of the same compound?
**A.** 60.1 µM (inactive)

**Q.** And the GI50 [8]?
**A.** > 100 µM (inactive)

**Q.** And the GI50 [9]?
**A.** > 100 µM (inactive)

**Q.** What about the GI50 [10] of the same compound?
**A.** > 100 µM (inactive)

**Q.** And the GI50 [11]?
**A.** > 100 µM (inactive)

**Q.** What about the GI50 [12] of the same compound?
**A.** > 100 µM (inactive)

**Q.** And the GI50 [13]?
**A.** > 100 µM (inactive)

**Q.** What about the GI50 [14] of the same compound?
**A.** > 100 µM (inactive)

**Q.** What about the GI50 [15] of the same compound?
**A.** > 100 µM (inactive)

**Q.** What about the GI50 [16] of the same compound?
**A.** > 100 µM (inactive)

**Q.** And the GI50 [17]?
**A.** > 100 µM (inactive)

**Q.** What about the GI50 [18] of the same compound?
**A.** > 100 µM (inactive)

**Q.** And the GI50 [19]?
**A.** 44.3 µM (inactive)

**Q.** What about the GI50 [20] of the same compound?
**A.** 46.1 µM (inactive)

**Q.** What about the GI50 [21] of the same compound?
**A.** > 100 µM (inactive)

**Q.** What about the GI50 [22] of the same compound?
**A.** 72.3 µM (inactive)

**Q.** And the GI50 [23]?
**A.** 63.4 µM (inactive)

**Q.** And the GI50 [24]?
**A.** > 100 µM (inactive)

**Q.** And the GI50 [25]?
**A.** > 100 µM

**Q.** And the GI50 [26]?
**A.** > 100 µM (inactive)

**Q.** And the GI50 [27]?
**A.** > 100 µM (inactive)

**Q.** And the GI50 [28]?
**A.** > 100 µM (inactive)

**Q.** And the GI50 [29]?
**A.** > 100 µM (inactive)

**Q.** What about the GI50 [30] of the same compound?
**A.** > 100 µM (inactive)

**Q.** And the GI50 [31]?
**A.** > 100 µM (inactive)

**Q.** What about the GI50 [32] of the same compound?
**A.** > 100 µM (inactive)

**Q.** What about the GI50 [33] of the same compound?
**A.** > 100 µM (inactive)

**Q.** What about the GI50 [34] of the same compound?
**A.** > 100 µM (inactive)

**Q.** And the GI50 [35]?
**A.** > 100 µM (inactive)

**Q.** And the GI50 [36]?
**A.** > 100 µM (inactive)

**Q.** And the GI50 [37]?
**A.** > 100 µM (inactive)

**Q.** And the GI50 [38]?
**A.** > 100 µM (inactive)

**Q.** What about the GI50 [39] of the same compound?
**A.** > 100 µM (inactive)

**Q.** What about the GI50 [40] of the same compound?
**A.** > 100 µM (inactive)

**Q.** And the GI50 [41]?
**A.** > 100 µM (inactive)

**Q.** What about the GI50 [42] of the same compound?
**A.** > 100 µM (inactive)

**Q.** What about the GI50 [43] of the same compound?
**A.** > 100 µM (inactive)

**Q.** And the GI50 [44]?
**A.** 21.1 µM (inactive)

**Q.** What about the GI50 [45] of the same compound?
**A.** > 100 µM (inactive)

**Q.** And the GI50 [46]?
**A.** 36.1 µM (inactive)

**Q.** And the GI50 [47]?
**A.** > 100 µM (inactive)

**Q.** And the GI50 [48]?
**A.** > 100 µM (inactive)

**Q.** And the GI50 [49]?
**A.** > 100 µM (inactive)

**Q.** What about the GI50 [50] of the same compound?
**A.** > 100 µM (inactive)

**Q.** And the GI50 [51]?
**A.** > 100 µM (inactive)

**Q.** And the GI50 [52]?
**A.** > 100 µM (inactive)

**Q.** And the GI50 [53]?
**A.** > 100 µM (inactive)

**Q.** And the GI50 [54]?
**A.** > 100 µM (inactive)

**Q.** And the GI50 [55]?
**A.** > 100 µM (inactive)
